Results as given in US4859688A, “Method for the treatment and prevention of arteriosclerosis with nitrophenyl substituted dihydropyridines” (priority 1984, dated 1989).
pIC50: −log10 of the molar value.

Legend:
[1] = system: rat aortic smooth muscle cells (SMC); assay: Inhibition of migration of smooth muscle cell (SMC), modified Boyden chamber (Test 3); type: cell-based, rat (male Wistar); conditions: 5% zymosan-activated air pouch exudates as attractant, 8 hours, 37° C.
Protocol: Inhibition of migration of smooth muscle cell (SMC)
Preparation of inflammatory exudates from zymosan-activated air pouch in rats:
Inflammatory exudates were obtained according to the method of Konno and Tsurufuji [Br. J. Pharmacol., 80 (1983) 269]. Seven-week-old male Wistar rats were injected subcutaneously with 12 ml of air on the back to make a pouch. Twenty-four hours later 6 ml of 1.6% (W/V) zymosan suspension in 0.5% (W/V) methyl cellulose solution in saline was injected into the pouch to induce inflammation. After 3 days the inflammatory exudates were collected with pipets and centrifuged for 15 minutes at 2,000 G. The supernatant was stored at -80° C. until used.
Culture of rat aortic smooth muscle cells (SMC):
Rat aortic SMC were isolated and cultured by the method of Ross [J. Cell Biol. 50 (1971) 172]. […]
Migration of SMC was examined in modified Boyden chambers using a filter membrane with pores of 8 μm diameter [Atherosclerosis, 43 (1982) 143]. […] SMC migration was quantitated microscopically by counting the number of cells that migrated into the filter to a depth of 30μm. Ten high-power fields (HPF, x 400) were examined for each filter and cell migration was expressed as cells per 10 HPF.

rabbit carotid artery [2] = assay: Effect on arteriosclerotic change induced by cuff in rabbit carotid artery (Test 1); type: in vivo; conditions: intramuscular, 5 days each week, 3 weeks, index scale 0-3
Source text: Effect on arteriosclerotic change induced by cuff in rabbit carotid artery
The arteriosclerosis which is characterized by intimal thickening was made in rabbits (about 2 kg weight) by the following method.
Under pentobarbital anesthesia, the left carotid artery was isolated from the surrounding tissue, put into a cuff (1.5 cm long PE-280) through a longitudinal slit and was returned to the place as it was. Then, the wound was sutured and the rabbits were recovered and fed with normal diet. Three weeks after surgery, the rabbits were anesthetized with pentobarbital and sections were taken of the carotid artery. The part of the artery covered by a cuff was examined under microscope for the arteriosclerotic index which was rated at 0, 1, 2 and 3 according to the degree of intimal thickening. For each rabbit, about 30 transverse sections were taken at random, and the mean arteriosclerotic index was used for the determination of the effect. Test Compound was suspended in 0.5% methyl cellulose and injected intramuscularly for 5 days each week beginning from one day after cuff treatment to one day before sacrifice. The injection volume was adjusted to 0.5 ml/kg.

thoracic aorta = assay: Inhibition of vitamin-D3-induced rise in Ca content of the thoracic aorta (Test 4); conditions: for Ca content of the thoracic aorta (means± standard error): 10μg/kg 1-α hydroxyvitamin D3 orally once a day for 2 weeks; for ED50: Rattus norvegicus, po, 336 h, read-out: ED50, inhibition of vitamin-D3-induced rise in Ca content of the thoracic aorta
rabbit carotid artery [3] = assay: Induction of intimal thickening of rabbit carotid artery by polyethylene cuff treatment (Test 2); type: in vivo, male Japanese white rabbits; conditions: intramuscular once a day, 3 weeks, index scale 0-3
Protocol: Induction of intimal thickening of rabbit carotid artery by polyethylene cuff treatment Eight (8) male Japanese white rabbits weighing about 2 kg were used for each test group. The rabbits were anesthetized with 12.5 mg/kg petobarbital and the left carotid artery was isolated with care not to injure the surrounding tissues. A polyethylene cuff (1.5 cm long PE280, inner diameter 2.15 mm, outer diameter 3.25 mm, made by Becton Dickinson & Co.) was placed around the artery according to the technique reported by Rosnowski et al. (CR. Acad, Sci. Paris, 271 (1970) 1467). The rabbits were maintained for 3 weeks on normal diet and water. Test Compounds and vehicles were given intramuscularly once a day starting from the day of cuff-placement. At the end of the 3rd week, the rabbits were heparinized (500 U, i.v.), and the artery was removed, washed free of blood with saline, fixed by immersion in 10% formalin and divided into 8 cross segments about 2 mm long. The segments were embedded in paraffin and cut into transverse sections. These sections were stained with orcein. About 70 transverse sections were prepared from each artery and used for the quantitation of the Arteriosclerotic Index. Quantitation of Arteriosclerotic Index The arterial sections were observed by light microscopy and the Arteriosclerotic Index was scored as follows. 0: No thickening. 1: slight hyperplasia in the subendothelial space with intima-media ratio of about 1/10. 2: several layers of cells in the subendothelial space with intima-media ratio of about 1/5, or parts of the subendothelial space with more hyperplasia. 3: sever hyperplasia throughout the subendothelial space with intima-media ratio of more than 1/3.

| Structure (SMILES) | pIC50 [1] | Arteriosclerotic Index (rabbit carotid artery [2]; 1.0 mg/kg) | Arteriosclerotic Index (rabbit carotid artery [2]; 10 mg/kg) | Ca content of the thoracic aorta (means± standard error) (thoracic aorta; 0.1 mg/kg per os twice a day) | Ca content of the thoracic aorta (means± standard error) (thoracic aorta; 1 mg/kg per os twice a day) | Ca content of the thoracic aorta (means± standard error) (thoracic aorta; 10 mg/kg per os twice a day) | Ca content of the thoracic aorta (means± standard error) (thoracic aorta; 100 mg/kg per os twice a day) | ED50 (thoracic aorta) | Arteriosclerotic Index (mean±standard error) (rabbit carotid artery [3]; 1 mg/kg) | Arteriosclerotic Index (mean±standard error) (rabbit carotid artery [3]; 10 mg/kg) |
| --- | --- | --- | --- | --- | --- | --- | --- | --- | --- | --- |
| COC(=O)C1=C(C#N)NC(C)=C(C(=O)OC(C)C)C1c1cccc([N+](=O)[O-])c1 (centres unmarked) [Dihydropyridine Compound A, Isopropyl ester of 6-cyano-5-methoxycarbonyl-2-methyl-4-(3-nitrophenyl)-1,4-dihydropyridine-3-carboxylic acid] | 10.48 | 0.85 ± 0.16 | 0.61 ± 0.21 | 94 ± 9 % of control | 57 ± 13 % of control | 27 ± 6 % of control | 8 ± 3 % of control | 2.2 mg/kg | 0.85 ±0.15 | 0.61 ±0.19 |
| COC(=O)C1=C(C)NC(C)=C(C(=O)OC)C1c1ccccc1[N+](=O)[O-] [Nifedipine, Dimethyl ester of 2,6-dimethyl-4-(2-nitrophenyl)-1,4-dihydropyridine-3,5-dicarboxylic acid, reference compound] | 9.77 |  |  |  | 93 ± 15 % of control | 58 ± 15 % of control | 30 ± 10 % of control | 23.2 mg/kg | 0.94 ±0.21 | 1.19 ±0.26 |
